Two molecules from patent publication US11124785B2, “Rothia subtilisins, S8A family proteases, as therapeutic enzymes for application in gluten intolerance disorders” (TRUSTEES OF BOSTON UNIVERSITY, priority 2016, dated 2021) can be followed below.

Type in all cases: biochemical
In test [1] the test system is G12 epitopes (QPQLPY) in mixed gliadins. Kind of test: G12 ELISA, gluten epitope elimination in gliadin digests. As to conditions: gliadins 250 μg/ml, enzyme 57 μg/ml. How it is done: (§1) FIG. 8E and FIG. 8F show the assessment of the survival of epitopes in the gliadin-NattoK degradation mixture employing the R5 ELISA (FIG. 8E) or G12 ELISA (FIG. 8F) assays. Epitope abolishment in Mixed gliadins (250 μg/ml) were incubated with NattoK (57 μg/ml) for 0, 15, 30 and 120 min and then assayed by the R5 ELISA or G12 ELISA.
(§2) R5 and G12 ELISA assays—Gluten epitope elimination in the gliadin-Rmep and gliadin-subtilisin A digests was assessed using two sandwich ELISA assays employing the R5 monoclonal antibody (RIDASCREEN Gliadin, R-Biopharm, Darmstadt, Germany) or the G12 monoclonal antibody (AgraQuant® ELISA Gluten G12, Romer labs, Union, Mo.). To prevent high background values, the R5 plate wells were blocked with 1% skim milk in PBS prior to incubation with the samples. The assays were performed according to the manufacturers' instructions and as described (21, 24).
(§3) To further investigate this, the time courses of degradation of mixed gliadins and the highly immunogenic 33-mer α-gliadin peptide were determined. Furthermore, epitope elimination was monitored by two ELISA assays employing the R5 antibody recognizing QQPFP (SEQ ID NO: 40) and related pentapeptides (27, 28) and the G12 antibody recognizing QPQLPY (SEQ ID NO: 22) contained in the 33-mer peptide (29, 30). Data obtained with Rmep are shown in FIG. 5, and with subtilisin A in FIG. 6.
(In general: In an ELISA, binding on a coated surface is turned into a signal by an enzyme label.)

In the next test the test system is Z-YPQ-pNA. Kind of test: Hydrolysis of paranitroanilide-derivatized substrate Z-YPQ-pNA. As to conditions: substrate 200 μM, enzyme 1 μg/ml, pH 8.0; second most rapid after Suc-AAPF-pNA. How it is done: (§4) FIG. 4A and FIG. 4B are representative graphs of the hydrolysis of the substrates: Suc-AAPF-pNA (SEQ ID NO: 4), Z-YPQ-pNA, and Z-LPY-pNA, each at 200 μM, by Rmep and subtilisin A, respectively, each at 1 μg/ml.
(§5) Hydrolysis of paranitroanilide-derivatized substrates—Paranitroanilide (pNA)-derivatized tripeptide substrates were chemically synthesized at >90% purity (21st Century Biochemicals, Marlborough, Mass.). The substrates obtained were Z-YPQ-pNA, Z-QQP-pNA, Z-LPY-pNA, Z-PFP-pNA, Z-PPF-pNA, where Z=benzyloxycarbonyl, Y=tyrosine, P=proline, Q=glutamine, L=leucine, and F=phenylalanine Suc-AAPF-pNA (SEQ ID NO: 4) was obtained from Sigma, where Suc=N-succinyl and A=alanine. The peptides were dissolved in 75-100% DMSO at 10 mM, and were used at a final concentration of 200 μM in 50 mM TrisHCl pH 8.0. Purified Rothia enzyme or subtilisin A from Bacillus licheniformis (Sigma) were tested at final concentrations of 1 μg/ml. Some experiments were conducted in the presence of inhibitors 4-(2-Aminoethyl) benzenesulfonyl fluoride (AEBSF), Aprotinin, E-64, EDTA, phenylmethanesulfonyl fluoride (PMSF) and Eglin C, which were tested at final concentrations of 10 mM, 0.08 mM, 0.1 mM, 1.5 mM, 1 mM, and 0.06-1.2 μM, respectively. […] Substrate hydrolysis was monitored for 10 h at 405 nm using a Genios microtiter plate reader (Tecan, Männedorf, Switzerland) in the kinetic mode at 37° C.

Another test deals with Z-LPY-pNA. Kind of test: Hydrolysis of paranitroanilide-derivatized substrate Z-LPY-pNA. As to conditions: five-fold increased enzyme concentrations (5 μg/ml) and longer incubation times. How it is done: as §4
FIG. 4C show a representative graph of the hydrolysis of the substrate, LPY, by Rmep and subtilisin A at 5 μg/ml and extended incubation times.
as §5, with “μg/ml.” for “μg/ml. Some experiments were conducted in the presence of inhibitors 4-(2-Aminoethyl) benzenesulfonyl fluoride (AEBSF), Aprotinin, E-64, EDTA, phenylmethanesulfonyl fluoride (PMSF) and Eglin C, which were tested at final concentrations of 10 mM, 0.08 mM, 0.1 mM, 1.5 mM, 1 mM, and 0.06-1.2 μM, respectively.”

A further test has as its system Z-PFP-pNA. Kind of test: Hydrolysis of paranitroanilide-derivatized substrate Z-PFP-pNA. As to conditions: substrate 200 μM, pH 8.0 (data not shown). How it is done: (§6) Hydrolysis of paranitroanilide-derivatized substrates—Paranitroanilide (pNA)-derivatized tripeptide substrates were chemically synthesized at >90% purity (21st Century Biochemicals, Marlborough, Mass.). The substrates obtained were Z-YPQ-pNA, Z-QQP-pNA, Z-LPY-pNA, Z-PFP-pNA, Z-PPF-pNA, where Z=benzyloxycarbonyl, Y=tyrosine, P=proline, Q=glutamine, L=leucine, and F=phenylalanine Suc-AAPF-pNA (SEQ ID NO: 4) was obtained from Sigma, where Suc=N-succinyl and A=alanine. The peptides were dissolved in 75-100% DMSO at 10 mM, and were used at a final concentration of 200 μM in 50 mM TrisHCl pH 8.0. Purified Rothia enzyme or subtilisin A from Bacillus licheniformis (Sigma) were tested at final concentrations of 1 μg/ml. Some experiments were conducted in the presence of inhibitors 4-(2-Aminoethyl) benzenesulfonyl fluoride (AEBSF), Aprotinin, E-64, EDTA, phenylmethanesulfonyl fluoride (PMSF) and Eglin C, which were tested at final concentrations of 10 mM, 0.08 mM, 0.1 mM, 1.5 mM, 1 mM, and 0.06-1.2 μM, respectively. Enzymes were preincubated with the inhibitors for 20 min before adding Suc-AAPF-pNA (SEQ ID NO: 4). Substrate hydrolysis was monitored for 10 h at 405 nm using a Genios microtiter plate reader (Tecan, Männedorf, Switzerland) in the kinetic mode at 37° C.

In a further test the test system is FRET substrate PQPQPQ. The test is described as follows: FRET substrate hydrolysis, PQPQPQ. Particulars: substrate 100 μM, Rmep 1 μg/ml, subtilisin A 0.5 μg/ml, pH 8.0. How it is done: FIG. 4D and FIG. 4E are representative graphs of the hydrolysis of gliadin-derived FRET substrates. FRET substrates containing QPQLPY (SEQ ID NO: 22), PQPQPQ (SEQ ID NO: 23) and QGSFQP (SEQ ID NO: 24), each at 100 μM, were incubated with Rmep […] and subtilisin A (FIG. 4E), at 1 μg/ml and 0.5 μg/ml, respectively. Controls were boiled Rmep and subtilisin A incubated with PQPQLPY (+) (SEQ ID NO: 25), PQPQPQ (⋄) (SEQ ID NO: 23) and QGSFQP (*) (SEQ ID NO: 24) (no activity, baseline).
FRET substrate hydrolysis—Three fluorescence resonance energy transfer (FRET) substrates comprising the hexapeptides QPQLPY (SEQ ID NO: 22), PQPQPQ (SEQ ID NO: 23) and QGSFQP (SEQ ID NO: 24) were synthesized with at the N-terminus the HILYTE FLUOR™ 488 label, and at the C-terminus with K(QXL520) (Anaspec, Fremont, Calif.). Rmep (1 μg/ml) and subtilisin A (0.5 μg/ml) were incubated with the substrates (100 μM) in 50 mM TrisHCl pH 8.0. Samples were incubated at 37° C. and fluorescence increase, indicating hydrolysis, was measured every 5 min for 30 min, and every 10 min for the next 30 min, at λex 485 nm and λem 520 nm, using a Genios microtiter plate reader in the kinetic mode.

In another test the test system is Z-PPF-pNA. Kind of test: Hydrolysis of paranitroanilide-derivatized substrate Z-PPF-pNA. As to conditions: fifty-fold increased enzyme concentrations (data not shown). On the procedure:
as §6

Test [2] deals with R5 epitopes (QQPFP and related pentapeptides) in mixed gliadins. The test is described as follows: R5 ELISA, gluten epitope elimination in gliadin digests. Particulars: gliadins 250 μg/ml, enzyme 57 μg/ml. On the procedure:
as §1, §2, §3

Regarding “Rmep: DEAE pooled fraction F2 of R. mucilaginosa ATCC 25296 extract with highest gluten-degrading enzyme activity; contains subtilisins C6R5V9_9MICC and C6R5W1_9MICC”, the “decrease of G12 antibody binding after 30 min” value in test [1] (30 min) was found to be 65%. For the same molecule, the “reduction of G12 antibody binding / G12 epitope degradation after 2 h” value in test [1] is recorded as 85%. Further, the “hydrolysis of Z-YPQ-pNA” value in the test with Z-YPQ-pNA is listed as “cleaved”. Moreover, the “hydrolysis of Z-LPY-pNA” value in the test on Z-LPY-pNA was “could be demonstrated”. Also, in the test on Z-PFP-pNA, the “hydrolysis of Z-PFP-pNA” value is recorded as “not hydrolyzed”. Moreover, in the test with FRET substrate PQPQPQ, the “hydrolysis of FRET substrate PQPQPQ” value is listed as “rapidly hydrolyzed”. Moreover, in the test with Z-PPF-pNA, the “hydrolysis of Z-PPF-pNA” value is “not”. The “R5 epitopes eliminated after 15 min” value in test [2] (15 min) is on record as “virtually all”. Moreover, the “R5 epitope elimination (reduction in antibody binding) at t=0” value in test [2] was determined as 46%.

B1: subtilisin A: subtilisin A from Bacillus licheniformis (Sigma) (protein, listed as Bacillus licheniformis)
chain: MMRKKSFWLGMLTAFMLVFTMAFSDSASAAQPAKNVEKDYIVGFKSGVKTASVKKDIIKESGGKVDKQFRIINAAKAKLDKEALKEVKNDPDVAYVEEDHVAHALAQTVPYGIPLIKADKVQAQGFKGANVKVAVLDTGIQASHPDLNVVGGASFVAGEAYNTDGNGHGTHVAGTVAALDNTTGVLGVAPSVSLYAVKVLNSSGSGTYSGIVSGIEWATTNGMDVINMSLGGPSGSTAMKQAVDNAYARGVVVVAAAGNSGSSGNTNTIGYPAKYDSVIAVGAVDSNSNRASFSSVGAELEVMAPGAGVYSTYPTSTYATLNGTSMASPHVAGAAALILSKHPNLSASQVRNRLSSTATYLGSSFYYGKGLINVEAAAQ
Consider B1, for which the “reduction of G12 antibody binding / G12 epitope degradation after 2 h” value in test [1] is 45%. In addition, the “G12 epitope degradation at t=0” value in test [1] (t=0) turned out to be 22%. Moreover, the “hydrolysis of Z-YPQ-pNA” value with Z-YPQ-pNA is “cleaved”. For the same molecule, the “hydrolysis of Z-LPY-pNA” value in the test with Z-LPY-pNA is “could be demonstrated”. The “hydrolysis of Z-PFP-pNA” value in the test with Z-PFP-pNA is given as “not hydrolyzed”. Besides, the “hydrolysis of FRET substrate PQPQPQ” value in the test with FRET substrate PQPQPQ is “highest activity”. For the same molecule, the “hydrolysis of Z-PPF-pNA” value in the test on Z-PPF-pNA was “hydrolyzed”. Moreover, the “R5 epitope elimination within 15 min of incubation” value in test [2] (15 min) stood at 100%. The “R5 epitope elimination (reduction in antibody binding) at t=0” value in test [2] stood at 90%.
